Legend:
Assay type in all cases: in vivo
[1] = system: Lolium multiflorum Lam.; test: Test Example 4: herbicidal effect by soil treatment (symbol K); details: application herbicide amount 320 g/ha
Summary of the method: (§1)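 Seeds were sown in sterilized diluvial soil, covered with about 1.5 cm of soil, and the soil surface was sprayed with a water-diluted emulsion of the compound at a predetermined rate. Plants grew in a greenhouse at 25° C. to 30° C.; effects were scored visually 3 weeks after application.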

[2] = system: Echinochloa crus-galli var. crus-galli; test: Test Example 4: herbicidal effect by soil treatment (symbol H); details: application herbicide amount 320 g/ha
Summary of the method: as §1

[3] = system: Amaranthus retroflexus; test: Test Example 5: herbicidal effect by foliage application, plastic box (symbol N); details: 320 g/ha, 3 weeks after application
Summary of the method: (§2)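 Effect is rated 3 weeks after a foliar spray of water-diluted emulsion concentrate at a predetermined herbicide amount. Plants had grown 14 days in a 25° C. to 30° C. greenhouse from seed in sterilized diluvial soil.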

[4] = system: Digitaria ciliaris; test: Test Example 5: herbicidal effect by foliage application, plastic box (symbol F); details: 320 g/ha, 3 weeks after application
Summary of the method: as §2

[5] = system: Chenopodium album; test: Test Example 5: herbicidal effect by foliage application, plastic box (symbol O); details: 320 g/ha, 3 weeks after application
Summary of the method: as §2

[6] = system: Digitaria ciliaris; test: Test Example 4: herbicidal effect by soil treatment (symbol F); details: application herbicide amount 320 g/ha
Summary of the method: as §1

[7] = system: Scirpus juncoides; test: Test Example 2: herbicidal activity, application during weed generation in submerged conditions (symbol B); details: Table 23; application herbicide amount 320 g/ha; grade 0-5 by criteria of Test Example 1
Summary of the method: (§3)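 Submerged alluvial soil (4 cm) sown with mixed seed; greenhouse 25–30° C. 1–2 leaf: diluted emulsion onto water surface, preset dose. Visual score, 3 wk.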

[8] = system: Echinochloa crus-galli var. crus-galli; test: Test Example 3: herbicidal effect by foliage application, Wagner pot (symbol H); details: application herbicide amount 320 g/ha
Summary of the method: (§4)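 Steps: fill pot with alluvial soil; add water to 0.1–0.5 cm depth; sow weed and rice seed; grow 14 days at 25–30 °C; spray diluted emulsion over the leaves; rate effect after 3 weeks.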

[9] = system: rapeseed; test: Test Example 4: effect on crop by soil treatment (symbol g); details: application herbicide amount 320 g/ha
Summary of the method: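 Crop seeds, among them rice, wheat, beet and rapeseed, were sown in sterilized diluvial soil and covered with about 1.5 cm of soil. Boxes were kept in a greenhouse at 25° C. to 30° C. for plant growth.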

[10] = system: Echinochloa oryzacola Vasing.; test: Test Example 2: herbicidal activity, application during weed generation in submerged conditions (symbol A); details: Table 23; application herbicide amount 320 g/ha; grade 0-5 by criteria of Test Example 1
Summary of the method: as §3

[11] = system: Apera spica-venti; test: Test Example 4: herbicidal effect by soil treatment (symbol L); details: application herbicide amount 320 g/ha
Summary of the method: as §1

[12] = system: Amaranthus retroflexus; test: Test Example 4: herbicidal effect by soil treatment (symbol N); details: application herbicide amount 320 g/ha
Summary of the method: as §1

[13] = system: Veronica persica; test: Test Example 5: herbicidal effect by foliage application, plastic box (symbol R); details: 320 g/ha, 3 weeks after application
Summary of the method: as §2

[14] = system: beet; test: Test Example 5: effect on crop by foliage application, plastic box (symbol f); details: 320 g/ha, 3 weeks after application
Summary of the method: (§5)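 In a plastic box 7 cm deep filled with sterilized diluvial soil, seeds of crops and weeds such as Digitaria ciliaris, Avena fatua and Amaranthus retroflexus are sown in spots and covered with about 1.5 cm of soil before greenhouse growth at 25–30° C.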

[15] = system: Abutilon theophrasti; test: Test Example 4: herbicidal effect by soil treatment (symbol M); details: application herbicide amount 320 g/ha
Summary of the method: as §1

[16] = system: Stellaria media; test: Test Example 5: herbicidal effect by foliage application, plastic box (symbol P); details: 320 g/ha, 3 weeks after application
Summary of the method: as §2

[17] = system: Leptochloa chinensis; test: Test Example 3: herbicidal effect by foliage application, Wagner pot (symbol D); details: application herbicide amount 320 g/ha
Summary of the method: as §4

[18] = system: Avena fatua; test: Test Example 5: herbicidal effect by foliage application, plastic box (symbol I); details: 320 g/ha, 3 weeks after application
Summary of the method: as §2

[19] = system: wheat; test: Test Example 5: effect on crop by foliage application, plastic box (symbol e); details: 320 g/ha, 3 weeks after application
Summary of the method: as §5

[20] = system: rice plant; test: Test Example 5: effect on crop by foliage application, plastic box (symbol b); details: 320 g/ha, 3 weeks after application
Summary of the method: as §5

Row | SMILES | N: Amaranthus retroflexus, herbicidal effect grade [3] | F: Digitaria ciliaris, herbicidal effect grade [4] | O: Chenopodium album, herbicidal effect grade [5] | Herbicidal effect grade, B: Scirpus juncoides [7] | herbicidal effect on H (Echinochloa crus-galli var. crus-galli), grade 0-5 [8] | Herbicidal effect grade, A: Echinochloa oryzacola Vasing. [10] | R: Veronica persica, herbicidal effect grade [13] | f: beet, effect on crop grade [14] | P: Stellaria media, herbicidal effect grade [16] | herbicidal effect on D (Leptochloa chinensis), grade 0-5 [17] | I: Avena fatua, herbicidal effect grade [18] | e: wheat, effect on crop grade [19] | b: directly sowed rice plant, effect on crop grade [20] | K (Lolium multiflorum Lam.) herbicidal effect grade [1] | H (Echinochloa crus-galli var. crus-galli) herbicidal effect grade [2] | F (Digitaria ciliaris) herbicidal effect grade [6] | g (rapeseed) effect on crop grade [9] | L (Apera spica-venti) herbicidal effect grade [11] | N (Amaranthus retroflexus) herbicidal effect grade [12] | M (Abutilon theophrasti) herbicidal effect grade [15] | further results
1 | CON=C(C)CC1CC(O)=C(c2c(C)cc(-c3ccc(Cl)nc3)cc2C)C1=O (mixture of isomers) [6-035] | 5 (Herbicidal ratio of 90% or more (almost completely withered)) | 5 (Herbicidal ratio of 90% or more (almost completely withered)) | 3 (Herbicidal ratio of 40% or higher and lower than 70%) | 4 (Herbicidal ratio of 70% or higher and lower than 90%) | 5 (Herbicidal ratio of 90% or more (almost completely withered)) | 5 (Herbicidal ratio of 90% or more (almost completely withered)) | 4 (Herbicidal ratio of 70% or higher and lower than 90%) | 0 (Herbicidal ratio of 5% or lower (almost no effect)) | 3 (Herbicidal ratio of 40% or higher and lower than 70%) | 5 (Herbicidal ratio of 90% or more (almost completely withered)) | 5 (Herbicidal ratio of 90% or more (almost completely withered)) | 4 (Herbicidal ratio of 70% or higher and lower than 90%) | 5 (Herbicidal ratio of 90% or more (almost completely withered)) |  |  |  |  |  |  |  | K: Lolium multiflorum Lam., herbicidal effect grade [1]: 5 (Herbicidal ratio of 90% or more (almost completely withered)); H: Echinochloa crus-galli var. crus-galli, herbicidal effect grade [2]: 5 (Herbicidal ratio of 90% or more (almost completely withered)); F: Digitaria ciliaris, herbicidal effect grade [6]: 5 (Herbicidal ratio of 90% or more (almost completely withered)); g: rapeseed, effect on crop grade [9]: 0 (Herbicidal ratio of 5% or lower (almost no effect)); L: Apera spica-venti, herbicidal effect grade [11]: 5 (Herbicidal ratio of 90% or more (almost completely withered)); N: Amaranthus retroflexus, herbicidal effect grade [12]: 0 (Herbicidal ratio of 5% or lower (almost no effect)); M: Abutilon theophrasti, herbicidal effect grade [15]: 0 (Herbicidal ratio of 5% or lower (almost no effect))
2 | C#CCOC1=C(c2c(C)cc(C)cc2C)C(=O)C(CC(C)=NOC)C1 (stereo not drawn) [1-008] | 0 (Herbicidal ratio of 5% or lower (almost no effect)) | 5 (Herbicidal ratio of 90% or more (almost completely withered)) | 0 (Herbicidal ratio of 5% or lower (almost no effect)) | 2 (Herbicidal ratio of 20% or higher and lower than 40%) | 5 (Herbicidal ratio of 90% or more (almost completely withered)) | 5 (Herbicidal ratio of 90% or more (almost completely withered)) | 0 (Herbicidal ratio of 5% or lower (almost no effect)) | 0 (Herbicidal ratio of 5% or lower (almost no effect)) | 0 (Herbicidal ratio of 5% or lower (almost no effect)) | 5 (Herbicidal ratio of 90% or more (almost completely withered)) | 4 (Herbicidal ratio of 70% or higher and lower than 90%) | 0 (Herbicidal ratio of 5% or lower (almost no effect)) | 4 (Herbicidal ratio of 70% or higher and lower than 90%) | 5 (Herbicidal ratio of 90% or more (almost completely withered)) | 4 (Herbicidal ratio of 70% or higher and lower than 90%) | 5 (Herbicidal ratio of 90% or more (almost completely withered)) | 0 (Herbicidal ratio of 5% or lower (almost no effect)) | 5 (Herbicidal ratio of 90% or more (almost completely withered)) | 0 (Herbicidal ratio of 5% or lower (almost no effect)) | 0 (Herbicidal ratio of 5% or lower (almost no effect)) | 
3 | CON=C(C)CC1CC(OC(=O)c2ccccc2)=C(c2c(C)cc(C)cc2C)C1=O (stereo not drawn) [1-010] | 4 (Herbicidal ratio of 70% or higher and lower than 90%) | 5 (Herbicidal ratio of 90% or more (almost completely withered)) | 4 (Herbicidal ratio of 70% or higher and lower than 90%) | 5 (Herbicidal ratio of 90% or more (almost completely withered)) | 5 (Herbicidal ratio of 90% or more (almost completely withered)) | 5 (Herbicidal ratio of 90% or more (almost completely withered)) | 4 (Herbicidal ratio of 70% or higher and lower than 90%) | 4 (Herbicidal ratio of 70% or higher and lower than 90%) | 4 (Herbicidal ratio of 70% or higher and lower than 90%) | 5 (Herbicidal ratio of 90% or more (almost completely withered)) | 5 (Herbicidal ratio of 90% or more (almost completely withered)) | 5 (Herbicidal ratio of 90% or more (almost completely withered)) | 5 (Herbicidal ratio of 90% or more (almost completely withered)) | 5 (Herbicidal ratio of 90% or more (almost completely withered)) | 5 (Herbicidal ratio of 90% or more (almost completely withered)) | 5 (Herbicidal ratio of 90% or more (almost completely withered)) | 4 (Herbicidal ratio of 70% or higher and lower than 90%) | 5 (Herbicidal ratio of 90% or more (almost completely withered)) | 5 (Herbicidal ratio of 90% or more (almost completely withered)) | 5 (Herbicidal ratio of 90% or more (almost completely withered)) | 

From US11000033B2, “Ketone or oxime compound, and herbicide” (NISSAN CHEMICAL CORPORATION, priority 2014, dated 2021)
